Assay results reported in paper PMC6566410, “Novel Diamide-Based Benzenesulfonamides as Selective Carbonic Anhydrase IX Inhibitors Endowed with Antitumor Activity: Synthesis, Biological Evaluation and In Silico Insights” (International Journal of Molecular Sciences, 2019).

Assays:
SR = test: NCI one-dose SRB assay; type: cell-based, human; details: SR (Leukemia), 1.00E-5 Molar
Method: (§1) First, all diamide-based benzenesulfonamides herein reported 5a–h were screened for their antitumor activity at one dose (10^−5 M) assay against a panel of sixty cancer cell lines through the National Cancer Institute (NCI) Developmental Therapeutic Program (www.dtp.nci.nih.gov), according to US-NCI protocol. The cell growth and cell viability were evaluated using the sulforhodamine B (SRB) colorimetric assay.
(§2) This assay was carried out according to the protocol of the Drug Evaluation Branch, NCI, Bethesda. The cell growth and cell viability were evaluated using the sulforhodamine B (SRB) colorimetric assay, as reported earlier.

UO-31 = test: NCI one-dose SRB assay; type: cell-based; details: Homo sapiens; for activity at 10 µM: UO-31 (Renal Cancer), 1.00E-5 Molar, one dose, read-out: Growth Percent
Method: as §1
The obtained data were reported as mean-graph of the percentage growth of the different treated tumour cells (Supplementary Materials). Exploration of results for this assay confirmed that the examined diamide-based benzenesulfonamides 5a–h had non-significant activity towards most NCI cancer cell lines.
as §2

hCA XII = hCA XII (Homo sapiens, UniProt O43570); test: stopped-flow CO2 hydrase assay; details: for Selectivity ratio I/XII: KI hCA I / KI hCA XII; for Selectivity ratio II/XII: KI hCA II / KI hCA XII
hCA XII, sequence (O43570 25-354): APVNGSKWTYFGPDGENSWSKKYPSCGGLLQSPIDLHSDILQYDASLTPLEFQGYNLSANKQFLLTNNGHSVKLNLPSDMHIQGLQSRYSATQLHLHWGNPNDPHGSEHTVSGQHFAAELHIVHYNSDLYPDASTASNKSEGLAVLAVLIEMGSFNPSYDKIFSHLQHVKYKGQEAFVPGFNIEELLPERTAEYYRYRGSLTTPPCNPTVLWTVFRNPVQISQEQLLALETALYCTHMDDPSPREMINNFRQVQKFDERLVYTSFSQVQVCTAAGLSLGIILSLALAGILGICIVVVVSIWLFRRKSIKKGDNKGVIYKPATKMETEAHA
Description: An Applied Photophysics stopped-flow instrument was used for assaying the CA catalysed CO2 hydration activity, as reported earlier [17]. The inhibition constants were obtained by non-linear least-squares methods using PRISM 3 and the Cheng-Prusoff equation as reported earlier, and represent the mean from at least three different determinations. The four tested CA isofoms were recombinant ones obtained in-house as reported earlier [26, 27, 28, 29].

[1] = tested on: renal cancer UO-31 cell line; test: MTT anti-proliferative assay; type: cell-based; details: Homo sapiens, mean ± S.D. of three separate experiments
Method: Staurosporine was adopted in the experiment as a reference anticancer drug.
Renal cancer UO-31 cell line was obtained from American Type Culture Collection (ATCC). UO-31 cells were seeded into 96-well plates at 1.8 x 10^4/well. Cells were grown in DMEM, and supplemented with 10% heat-inactivated fetal bovine serum, 1% L-glutamine (2.5 mM), HEPES buffer (10 mM), 50 μg/mL gentamycin.

UO-31 cells [2] = test: cell cycle analysis, DNA flow cytometry; type: cell-based, human; details: UO-31, at IC50 concentration, 24 h
Method: The effect of diamide-based benzenesulfonamides 5a and 5h on cell cycle progression was examined in renal UO-31 cancer cells, through a DNA flow cytometric assay (Figure 3).
Then, the treated cells were collected by centrifugation, fixed in ice-cold 70% (v/v) ethanol, washed with PBS, re-suspended with RNase (100 μg/mL), stained with PI (40 μg/mL), and analyzed by flow cytometry using FACS Calibur (Becton Dickinson, BD, USA). The cell cycle distributions were calculated utilizing CellQuest software 5.1 (Becton Dickinson).

UO-31 cells [3] = test: Annexin V-FITC/PI apoptosis assay; type: cell-based, human; details: for late apoptotic cells (UR) / early apoptotic cells (LR): UO-31, annexin V-FITC/PI; for late apoptotic cells (UR): control 0.29%; for early apoptotic cells (LR): control 0.85%
Method: To explore whether the anti-proliferative activity of diamide-based sulfonamides 5a and 5h is consistent with the induction of apoptosis within the UO-31 cancer cells, Annexin V-FITC/propidium iodide (AV/PI) dual staining assay was performed by flow cytometry (Figure 4).
Assay of the phosphatidylserine externalization was carried out using Annexin V-FITC/PI apoptosis detection kit (BD Biosciences, San Jose, CA, USA) following the manufacturer’s instructions, as reported previously.

BT-549 = test: NCI one-dose SRB assay; type: cell-based, human; details: BT-549 (Breast Cancer), 1.00E-5 Molar
Method: as §1, §2

## COc1ccc(C=C(NC(=O)c2ccccc2)C(=O)Nc2ccc(S(N)(=O)=O)cc2)cc1OC [Compound 5g, N-(1-(3,4-Dimethoxyphenyl)-3-oxo-3-((4-sulfamoylphenyl)amino)prop-1-en-2-yl)benzamide]
SR
  Growth Percent: 82.62%
UO-31
  activity at 10 µM: 77.9%
other
  melting point: 250 to 253 °C
hCA XII
  Ki: 9.8 nM
  Selectivity ratio I/XII: 225.3
  Selectivity ratio II/XII: 45.7

## COc1ccc(C=C(NC(=O)c2ccccc2)C(=O)Nc2ccc(S(N)(=O)=O)cc2)c(OC)c1 [Compound 5f, N-(1-(2,4-Dimethoxyphenyl)-3-oxo-3-((4-sulfamoylphenyl)amino)prop-1-en-2-yl)benzamide]
SR
  Growth Percent: 95.41%
UO-31
  activity at 10 µM: 82.5%
other
  melting point: 245 to 250 °C
hCA XII
  Ki: 134 nM
  Selectivity ratio I/XII: 38.2
  Selectivity ratio II/XII: 2.2

## Cc1ccc(C=C(NC(=O)c2ccccc2)C(=O)Nc2ccc(S(N)(=O)=O)cc2)o1 [Compound 5h, N-(1-(5-Methylfuran-2-yl)-3-oxo-3-((4-sulfamoylphenyl)amino)prop-1-en-2-yl)benzamide]
[1]
  IC50: 4890 ± 220 nM
UO-31 cells [2]
  arrest in G2-M phase compared to control: 2.5 fold
  increase in percentage of cells at Sub-G1 compared to control: 15.5 fold
UO-31 cells [3]; UO-31
  total increase in annexin V-FITC positive apoptotic cells (UR + LR) compared with control: 26.5 fold
UO-31 cells [3]
  late apoptotic cells (UR): 21.85%
  early apoptotic cells (LR): 8.41%
UO-31
  activity at 10 µM: 65.2%
UO-31; UO-31, one dose 10^−5 M, read-out: percentage growth inhibition (GI%)
  inhibition at 10 µM: 35%
other
  melting point: 240 to 243 °C
hCA XII
  Ki: 57.9 nM
  Selectivity ratio I/XII: 141.2
  Selectivity ratio II/XII: 2

## NS(=O)(=O)c1ccc(NC(=O)C(=Cc2ccc(Cl)cc2)NC(=O)c2ccccc2)cc1 [Compound 5a, N-(1-(4-Chlorophenyl)-3-oxo-3-((4-sulfamoylphenyl)amino)prop-1-en-2-yl)benzamide]
[1]
  IC50: 6530 ± 380 nM
UO-31 cells [2]
  arrest in G2-M phase compared to control: 2.2 fold
  increase in percentage of cells at Sub-G1 compared to control: 14 fold
UO-31 cells [3]
  late apoptotic cells (UR): 22.96%
  early apoptotic cells (LR): 2.64%
SR
  Growth Percent: 96.44%
UO-31
  activity at 10 µM: 78.7%
other
  melting point: 255 to 258 °C
hCA XII
  Ki: 16.1 nM
  Selectivity ratio I/XII: 245.7
  Selectivity ratio II/XII: 4.2

## Cc1ccc(C=C(NC(=O)c2ccccc2)C(=O)Nc2ccc(S(N)(=O)=O)cc2)cc1 [Compound 5d, N-(3-Oxo-3-((4-sulfamoylphenyl)amino)-1-(p-tolyl)prop-1-en-2-yl)benzamide]
BT-549
  Growth Percent: 105.04%
SR
  Growth Percent: 85.23%
UO-31
  activity at 10 µM: 87%
other
  melting point: 255 to 258 °C
hCA XII
  Ki: 60.2 nM
  Selectivity ratio I/XII: 13.2

## NS(=O)(=O)c1ccc(NC(=O)C(=Cc2ccc(Br)cc2)NC(=O)c2ccccc2)cc1 [Compound 5c, N-(1-(4-Bromophenyl)-3-oxo-3-((4-sulfamoylphenyl)amino)prop-1-en-2-yl)benzamide]
SR
  Growth Percent: 88.11%
UO-31
  activity at 10 µM: 77.2%
other
  melting point: 210 to 212 °C
hCA XII
  Ki: 55.4 nM
  Selectivity ratio I/XII: 43.3
  Selectivity ratio II/XII: 4.5

## NS(=O)(=O)c1ccc(NC(=O)C(=Cc2ccc(Cl)cc2Cl)NC(=O)c2ccccc2)cc1 [Compound 5b, N-(1-(2,4-Dichlorophenyl)-3-oxo-3-((4-sulfamoylphenyl)amino)prop-1-en-2-yl)benzamide]
[1]
  IC50: 16700 ± 920 nM
BT-549
  Growth Percent: 89.13%
SR
  Growth Percent: 96.62%
UO-31
  activity at 10 µM: 75.8%
other
  melting point: 265 to 267 °C
hCA XII
  Ki: 10.5 nM
  Selectivity ratio I/XII: 569.2
  Selectivity ratio II/XII: 21.3

## COc1ccc(C=C(NC(=O)c2ccccc2)C(=O)Nc2ccc(S(N)(=O)=O)cc2)cc1 [Compound 5e, N-(1-(4-Methoxyphenyl)-3-oxo-3-((4-sulfamoylphenyl)amino)prop-1-en-2-yl)benzamide]
SR
  Growth Percent: 88.45%
UO-31
  activity at 10 µM: 86.4%
hCA XII
  Ki: 42.8 nM
  Selectivity ratio I/XII: 23.5
  Selectivity ratio II/XII: 3
